Columns and labels:
Nur77 = molecular target: T1, Nur77 (Homo sapiens, UniProt P22736); assay: Activity on HEK - Nur77 modulation (Gal4-DBD luciferase reporter in stable HEK293 cells); format: cell-based; settings: HEK293 cells expressing Gal4-DBD-hNur77 and Pfr-Luc; 24 hours with compound; luminescence
T1 construct: the Pfr-Luc (Gal4-responsive luciferase) reporter sits in the same cells
Description: Stable HEK293 cells expressing Gal4-DBD-FL-NOT, -hNur77, -hNOR1 and Pfr-Luc were obtained by limit dilution. HEK cells were grown in 75 cm^2 flask in DMEM high glucose 30-2002™ containing 10% calf serum, hygromycin at a content of 250 μg/ml, doxycycline at a content of 2 μg/ml (to induce expression) and 0.4 mg/ml of penicillin. After one week in culture, cells were harvested by trypsinization then plated onto 96 well dishes at the density of 20 000 cell per well in 75 μl of culture medium. After 24 hours compounds were added (25 μl per well) at different concentration for further 24 hours. The medium was removed and measurement was performed by adding 50 μl of Steadyglo (Promega, E2510) with 50 μl PBS per well for 15 minutes and plates were read using microplate luminescent reader.

Nurr1 = molecular target: T2, Nurr1 (Mus musculus, UniProt Q06219); assay: Activity on neuroblastoma cell lines - Nurr1 modulation (NBRE8x luciferase reporter in N2A cells); format: cell-based; settings: N2A cells stably transfected with NBRE8x luciferase reporter; 24 hours with compound
T2 construct: N2A cells obtained from ATCC were stably transfected with NBRE8x (50-AAGGTCA-30) in tandem coupled with luciferase reporter gene; host or cells: N2A neuroblastoma cells
T2 sequence (Q06219 whole entry): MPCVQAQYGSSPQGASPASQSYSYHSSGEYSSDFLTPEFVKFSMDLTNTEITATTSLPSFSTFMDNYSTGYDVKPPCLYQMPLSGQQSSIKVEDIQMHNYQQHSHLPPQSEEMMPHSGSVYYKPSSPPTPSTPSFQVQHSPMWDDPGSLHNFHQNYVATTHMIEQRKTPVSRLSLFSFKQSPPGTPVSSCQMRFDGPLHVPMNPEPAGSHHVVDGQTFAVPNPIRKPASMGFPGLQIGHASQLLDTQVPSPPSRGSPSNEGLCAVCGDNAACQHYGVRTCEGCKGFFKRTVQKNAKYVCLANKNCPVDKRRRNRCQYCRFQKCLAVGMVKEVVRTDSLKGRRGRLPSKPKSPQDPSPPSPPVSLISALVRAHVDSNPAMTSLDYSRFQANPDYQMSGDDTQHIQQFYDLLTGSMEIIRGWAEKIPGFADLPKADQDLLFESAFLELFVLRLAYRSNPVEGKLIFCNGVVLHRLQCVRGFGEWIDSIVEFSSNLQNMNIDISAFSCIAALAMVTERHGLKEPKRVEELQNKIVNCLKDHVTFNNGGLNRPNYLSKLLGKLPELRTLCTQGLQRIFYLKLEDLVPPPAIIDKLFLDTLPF
Description: N2A cells obtained from ATCC were stably transfected with NBRE8x (50-AAGGTCA-30) in tandem coupled with luciferase reporter gene. Each NBRE sequence was separated with 5 nucleotides. N2A were grown in 75 cm^2 flask in DMEM containing 10% calf serum, 4.5 g/L glucose and 0.4 mg/ml geneticin. After one week in culture cells were harvested by trypsinization (0.25%, 30 minutes) then plated onto 96 well dishes at the density of 60 000 cell per well in 75 μl of DMEM without phenol red containing 4.5 g/l glucose, 10% lipid free serum from Hyclone. After 24 hours compounds were added (25 μl/well) at different concentration for further 24 hours. Measurement is performed by adding 100 μl of Steadylite per well for 30 minutes and plates were read using microplate […] reader.

T1 sequence (P22736 360-598 limits assumed): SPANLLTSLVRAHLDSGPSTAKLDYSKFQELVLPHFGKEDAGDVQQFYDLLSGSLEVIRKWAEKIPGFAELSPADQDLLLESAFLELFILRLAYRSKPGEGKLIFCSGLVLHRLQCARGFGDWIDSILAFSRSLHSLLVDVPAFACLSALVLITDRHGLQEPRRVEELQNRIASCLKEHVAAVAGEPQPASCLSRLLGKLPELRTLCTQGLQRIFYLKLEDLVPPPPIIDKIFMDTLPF

IC50 (Nur77) [nM]	EC50 (Nurr1) [nM]	SMILES
0.03	0.7	Cn1c(-c2ccc3cc[nH]c3c2)cn2nc(-c3ccc(F)cc3)nc12 [compound (1), 6-[2-(4-fluorophenyl)-4-methyl-imidazo[1,2-b][1,2,4]triazol-5-yl]-1H-indole]
–	63	Cn1c(-c2cccc(F)c2)cn2nc(-c3ccc(F)cc3)nc12 [compound (2), 5-(3-fluorophenyl)-2-(4-fluorophenyl)-4-methyl-4H-imidazo[1,2-b][1,2,4]triazole]
0.9	0.4	Cn1c(-c2ccccc2)cn2nc(-c3cccc(CO)c3)nc12 [compound (3), [3-(4-methyl-5-phenyl-4H-imidazo[1,2-b][1,2,4]triazol-2-yl)phenyl]methanol]
